Measured values: patent US10227606B2, “Method of increasing photosynthesis and yield of plants” (NATIONAL UNIVERSITY CORPORATION NAGOYA UNIVERSITY, priority 2013, dated 2019)

Test system: stomata (guard cells)
Assay: Measurement of the stomatal aperture in isolated epidermal tissue
Format: cell-based, Arabidopsis thaliana
Conditions: 20 μM ABA, 2.5 hours under illumination; AHA2-transgenic and wild-type plants
Procedure: The stomatal aperture was measured according to a conventional method (27) with slight modifications. Epidermal tissue isolated from plants 3 to 4 weeks after planting overnight dark-adapted plants was incubated in basal buffer (5 mM MES-BTP, pH 6.5, 50 mM KCl, and 0.1 mM CaCl2). To inhibit light-induced stomatal opening using ABA, the epidermal tissue was incubated under blue light/red light (10 μmol m^−2s^−1 blue light (Stick-B-32; EYELA, Tokyo, Japan) superimposed on 50 μmol ^m−2s^−1 background red light (LED-R; EYELA)) for 2.5 hours at 24° C. in the presence or absence or 20 μM ABA. The stomatal aperture in the abaxial epidermis was measured using a microscope. Stomatal aperture was represented as the average and standard error (SEM) for 25 stomata. Results were confirmed by blind reassessment by another researcher.

**Q.** With `CC1=CC(=O)CC(C)(C)[C@@]1(O)/C=C/C(C)=C\C(=O)O` [ABA, abscisic acid] as the molecule, how does the “effect of ABA on light-induced stomatal opening” value read?
**A.** inhibited
